From article PMC7520961, “Safety evaluation of the interchangeable use of robenacoxib in commercially-available tablets and solution for injection in cats” (BMC Veterinary Research, 2020)
“Also recorded” adds a separate entry of the source.

Key:
[1] = Toxicokinetics: robenacoxib concentration in blood by LC-MS/MS; type: in vivo, cat
Experimental: Approximately 0.5 mL of whole blood was collected from animals via the jugular vein and placed in tubes containing K2EDTA. Samples were collected within 30 minutes prior to dosing and at 0.75, and 4 hours postdose on Days 1, 4, 7, 10, 17, 30, and 37. A single 0.5 mL sample was collected from all animals 4 hours postdose on Days 8, 11, 14, 28, 31, and 34. The animals were fasted for predose and 0.75 hour blood collections and were fed 2 to 3 hours after dose administration. Samples were stored frozen (-10 to […]) within approximately 1 hour after collection until analyzed. Day 1 blood samples were inadvertently processed to plasma and therefore not analyzed.
Robenacoxib was quantitatively analyzed in blood using a validated analytical method involving liquid chromatography with tandem mass spectrometry detection (LC-MS/MS) that has been previously describe. Performance of the method was monitored by low, medium and high quality control samples, where inter-run %RSD (relative standard deviation) was 8.3, 7.4, and 5.8, respectively.
Only abbreviated toxicokinetic sampling was performed so as not to interfere with the primary objective of the study. Concentrations below the limit of quantification were considered 0.

[2] = Dissolution of robenacoxib tablets with or without gelatin capsule; type: physicochemical; settings: by 40 minutes; tablets whether or not encapsulated in gelatin capsules; data not shown
anesthetized cats = test system: anesthetized cats; design: method as in ref 24 = [24]; 24. Panteri A Deurinck M Seewald W Gerber S King JN Desevaux C Safety of intravenous Robenacoxib (Onsior) in cats J Vet Pharmacol Ther 2015 38 S1 149; settings: single dose SC 2 mg/kg or 2 or 4 mg/kg IV, 5 or 60 min post administration; cited from earlier work
cats = test system: cats; design: method as in ref 12 = [12]; 12. US Food and Drug Administration Freedom of Information Summary: Original New Animal Drug Application NADA 141–320 (Onsior Robenacoxib Tablets for Cats) 2011.; settings: six-month target animal safety study, oral robenacoxib at 1, 3 and 5X; cited from earlier work

CCc1ccc(Nc2c(F)c(F)cc(F)c2F)c(CC(=O)O)c1 [robenacoxib]
plasma robenacoxib concentration (mean ± SD) ([1]; 1X, SC 2.0 mg/kg/day, Study Day 8, 4 h postdose): 98.2 ± 60.7 ng/mL
plasma robenacoxib concentration (mean ± SD) ([1]; 1X, SC 2.0 mg/kg/day, Study Day 10, 0.75 h postdose): 1124.1 ± 325.9 ng/mL
plasma robenacoxib concentration (mean ± SD) ([1]; 1X, SC 2.0 mg/kg/day, Study Day 10, 4 h postdose): 79.1 ± 51.5 ng/mL
plasma robenacoxib concentration (mean ± SD) ([1]; 1X, SC 2.0 mg/kg/day, Study Day 28, 4 h postdose): 117.2 ± 86.1 ng/mL
plasma robenacoxib concentration (mean ± SD) ([1]; 1X, SC 2.0 mg/kg/day, Study Day 30, 0.75 h postdose): 1358.6 ± 254.5 ng/mL
plasma robenacoxib concentration (mean ± SD) ([1]; 1X, SC 2.0 mg/kg/day, Study Day 30, 4 h postdose): 94.8 ± 68.3 ng/mL
plasma robenacoxib concentration (mean ± SD) ([1]; 1X, oral ≥2.4 mg/kg/day, Study Day 4, 0.75 h postdose): 2593.1 ± 909.5 ng/mL
plasma robenacoxib concentration (mean ± SD) ([1]; 1X, oral ≥2.4 mg/kg/day, Study Day 4, 4 h postdose): 22.9 ± 11.6 ng/mL
plasma robenacoxib concentration (mean ± SD) ([1]; 1X, oral ≥2.4 mg/kg/day, Study Day 7, 0.75 h postdose): 2591.3 ± 875.5 ng/mL
plasma robenacoxib concentration (mean ± SD) ([1]; 1X, oral ≥2.4 mg/kg/day, Study Day 7, 4 h postdose): 26.9 ± 27.4 ng/mL
plasma robenacoxib concentration (mean ± SD) ([1]; 1X, oral ≥2.4 mg/kg/day, Study Day 11, 4 h postdose): 34.9 ± 36.2 ng/mL
plasma robenacoxib concentration (mean ± SD) ([1]; 1X, oral ≥2.4 mg/kg/day, Study Day 14, 4 h postdose): 19.0 ± 7.3 ng/mL
plasma robenacoxib concentration (mean ± SD) ([1]; 1X, oral ≥2.4 mg/kg/day, Study Day 17, 0.75 h postdose): 2811.3 ± 1502.1 ng/mL
plasma robenacoxib concentration (mean ± SD) ([1]; 1X, oral ≥2.4 mg/kg/day, Study Day 17, 4 h postdose): 42.7 ± 49.7 ng/mL
plasma robenacoxib concentration (mean ± SD) ([1]; 1X, oral ≥2.4 mg/kg/day, Study Day 31, 4 h postdose): 27.2 ± 16.0 ng/mL
plasma robenacoxib concentration (mean ± SD) ([1]; 1X, oral ≥2.4 mg/kg/day, Study Day 34, 4 h postdose): 35.3 ± 28.5 ng/mL
plasma robenacoxib concentration (mean ± SD) ([1]; 1X, oral ≥2.4 mg/kg/day, Study Day 37, 0.75 h postdose): 2717.6 ± 1589.6 ng/mL
plasma robenacoxib concentration (mean ± SD) ([1]; 1X, oral ≥2.4 mg/kg/day, Study Day 37, 4 h postdose): 90.4 ± 106.6 ng/mL
plasma robenacoxib concentration (mean ± SD) ([1]; 2X, SC 4.0 mg/kg/day, Study Day 8, 4 h postdose): 233.6 ± 215.8 ng/mL
plasma robenacoxib concentration (mean ± SD) ([1]; 2X, SC 4.0 mg/kg/day, Study Day 10, 0.75 h postdose): 1481.3 ± 359.7 ng/mL
plasma robenacoxib concentration (mean ± SD) ([1]; 2X, SC 4.0 mg/kg/day, Study Day 10, 4 h postdose): 263.1 ± 249.4 ng/mL
plasma robenacoxib concentration (mean ± SD) ([1]; 2X, SC 4.0 mg/kg/day, Study Day 28, 4 h postdose): 236.6 ± 130.2 ng/mL
plasma robenacoxib concentration (mean ± SD) ([1]; 2X, SC 4.0 mg/kg/day, Study Day 30, 0.75 h postdose): 1821.6 ± 817.9 ng/mL
plasma robenacoxib concentration (mean ± SD) ([1]; 2X, SC 4.0 mg/kg/day, Study Day 30, 4 h postdose): 326.0 ± 276.7 ng/mL
plasma robenacoxib concentration (mean ± SD) ([1]; 2X, oral ≥4.8 mg/kg/day, Study Day 4, 0.75 h postdose): 5177.5 ± 2229.5 ng/mL
plasma robenacoxib concentration (mean ± SD) ([1]; 2X, oral ≥4.8 mg/kg/day, Study Day 4, 4 h postdose): 54.2 ± 28.5 ng/mL
plasma robenacoxib concentration (mean ± SD) ([1]; 2X, oral ≥4.8 mg/kg/day, Study Day 7, 0.75 h postdose): 3383.8 ± 1818.8 ng/mL
plasma robenacoxib concentration (mean ± SD) ([1]; 2X, oral ≥4.8 mg/kg/day, Study Day 7, 4 h postdose): 67.8 ± 58.5 ng/mL
plasma robenacoxib concentration (mean ± SD) ([1]; 2X, oral ≥4.8 mg/kg/day, Study Day 11, 4 h postdose): 66.6 ± 57.4 ng/mL
plasma robenacoxib concentration (mean ± SD) ([1]; 2X, oral ≥4.8 mg/kg/day, Study Day 14, 4 h postdose): 53.8 ± 59.0 ng/mL
plasma robenacoxib concentration (mean ± SD) ([1]; 2X, oral ≥4.8 mg/kg/day, Study Day 17, 0.75 h postdose): 4160.0 ± 1166.0 ng/mL
plasma robenacoxib concentration (mean ± SD) ([1]; 2X, oral ≥4.8 mg/kg/day, Study Day 17, 4 h postdose): 64.5 ± 54.7 ng/mL
plasma robenacoxib concentration (mean ± SD) ([1]; 2X, oral ≥4.8 mg/kg/day, Study Day 31, 4 h postdose): 101.5 ± 152.6 ng/mL
plasma robenacoxib concentration (mean ± SD) ([1]; 2X, oral ≥4.8 mg/kg/day, Study Day 34, 4 h postdose): 92.2 ± 58.5 ng/mL
plasma robenacoxib concentration (mean ± SD) ([1]; 2X, oral ≥4.8 mg/kg/day, Study Day 37, 0.75 h postdose): 4009.4 ± 1765.2 ng/mL
plasma robenacoxib concentration (mean ± SD) ([1]; 2X, oral ≥4.8 mg/kg/day, Study Day 37, 4 h postdose): 80.0 ± 62.6 ng/mL
plasma robenacoxib concentration (mean ± SD) ([1]; 3X, SC 6.0 mg/kg/day, Study Day 8, 4 h postdose): 723.3 ± 250.8 ng/mL
plasma robenacoxib concentration (mean ± SD) ([1]; 3X, SC 6.0 mg/kg/day, Study Day 10, 0.75 h postdose): 2461.3 ± 1075.8 ng/mL
plasma robenacoxib concentration (mean ± SD) ([1]; 3X, SC 6.0 mg/kg/day, Study Day 10, 4 h postdose): 390.2 ± 236.2 ng/mL
plasma robenacoxib concentration (mean ± SD) ([1]; 3X, SC 6.0 mg/kg/day, Study Day 28, 4 h postdose): 394.8 ± 187.7 ng/mL
plasma robenacoxib concentration (mean ± SD) ([1]; 3X, SC 6.0 mg/kg/day, Study Day 30, 0.75 h postdose): 2878.8 ± 831.4 ng/mL
plasma robenacoxib concentration (mean ± SD) ([1]; 3X, SC 6.0 mg/kg/day, Study Day 30, 4 h postdose): 418.7 ± 246.2 ng/mL
plasma robenacoxib concentration (mean ± SD) ([1]; 3X, oral ≥7.2 mg/kg/day, Study Day 4, 0.75 h postdose): 5511.8 ± 3389.8 ng/mL
plasma robenacoxib concentration (mean ± SD) ([1]; 3X, oral ≥7.2 mg/kg/day, Study Day 4, 4 h postdose): 98.0 ± 48.6 ng/mL
plasma robenacoxib concentration (mean ± SD) ([1]; 3X, oral ≥7.2 mg/kg/day, Study Day 7, 0.75 h postdose): 7267.5 ± 4006.6 ng/mL
plasma robenacoxib concentration (mean ± SD) ([1]; 3X, oral ≥7.2 mg/kg/day, Study Day 7, 4 h postdose): 76.2 ± 32.2 ng/mL
plasma robenacoxib concentration (mean ± SD) ([1]; 3X, oral ≥7.2 mg/kg/day, Study Day 11, 4 h postdose): 99.2 ± 36.3 ng/mL
plasma robenacoxib concentration (mean ± SD) ([1]; 3X, oral ≥7.2 mg/kg/day, Study Day 14, 4 h postdose): 79.1 ± 38.0 ng/mL
plasma robenacoxib concentration (mean ± SD) ([1]; 3X, oral ≥7.2 mg/kg/day, Study Day 17, 0.75 h postdose): 5798.8 ± 3218.0 ng/mL
plasma robenacoxib concentration (mean ± SD) ([1]; 3X, oral ≥7.2 mg/kg/day, Study Day 17, 4 h postdose): 108.5 ± 67.8 ng/mL
plasma robenacoxib concentration (mean ± SD) ([1]; 3X, oral ≥7.2 mg/kg/day, Study Day 31, 4 h postdose): 94.7 ± 69.7 ng/mL
plasma robenacoxib concentration (mean ± SD) ([1]; 3X, oral ≥7.2 mg/kg/day, Study Day 34, 4 h postdose): 84.2 ± 30.3 ng/mL
plasma robenacoxib concentration (mean ± SD) ([1]; 3X, oral ≥7.2 mg/kg/day, Study Day 37, 0.75 h postdose): 6460.0 ± 3839.3 ng/mL
plasma robenacoxib concentration (mean ± SD) ([1]; 3X, oral ≥7.2 mg/kg/day, Study Day 37, 4 h postdose): 123.2 ± 121.7 ng/mL
oral administration vs subcutaneous injection, average concentrations ([1]; all dose groups): higher average 0.75 h concentrations and lower average 4 h concentrations
accumulation of robenacoxib ([1]; comparing concentrations 4 h post oral administration (Days 4, 7, 11, 14, 17, 31, 34, 37)): no accumulation observed after Day 4; also recorded: No robenacoxib accumulation was observed
robenacoxib dissolved [2]: approximately 93%
electrocardiographic changes (including QT interval) (anesthetized cats): no electrocardiographic changes
QT interval effect (cats): dose-dependent QT prolongation
arrhythmias (cats): no arrhythmias were documented
